Source: US20240238425A1, “HSD17B13 Inhibitors and/or Degraders” (Pfizer Inc., priority 2022, published 2024)
Where a name gives a salt, the structure may show the parent alone.

Test system: HiBiT-HSD17β13 fusion protein (N-terminal HiBiT-tagged HSD17β13 isoform D) in Huh7 HiBiT-HSD17β13 OE cells
Test: Whole-cell Huh7-HSD17B13 HiBiT assay (degrader potency and maximal efficacy, luminescence readout)
Assay type: cell-based, human
Details: 24 hour incubation, geometric mean, * = geometric mean for all forms tested (parent and salt forms); for DC50: read-out: Huh7_HIBIT-HSD17β13_DC50 GMean DC50; for Huh7_HIBIT-HSD17β13_DC50 GMean Asymptote Maximum: max. concentration 1 μM
Procedure, shortened: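 Huh7 cells stably overexpressing N-terminal HiBiT-tagged HSD17β13 isoform D, clone matched to primary hepatocyte expression, were exposed to an 11-point, 1 in 3.162 dilution series (top 1 μM final) for 24 h at 37° C. Lytic HiBiT luminescence was normalised to DMSO and parental-cell controls; DC50 from four-parameter logistic fit, with CellTiter-Glo counter screen.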

Row | DC50 [nM] | SMILES | Huh7_HIBIT-HSD17β13_DC50 GMean Asymptote Maximum
1 | 1.6 | Cn1c(=O)n(C2CCC(=O)NC2=O)c2ccc(CCCN3C[C@H]4CCN(c5ccc6cn(C7CCC(CNC(=O)c8cc(F)c(O)c(F)c8F)CC7)nc6c5)C[C@H]4C3)cc21.O=CO (mixture of isomers) [Example 22, N-{[(1r,4r)-4-{6-[(3aR,7aS)-2-(3-{1-[(3RS)-2,6-Dioxopiperidin-3-yl]-3-methyl-2-oxo-2,3-dihydro-1H-benzimidazol-5-yl}propyl)octahydro-5H-pyrrolo[3,4-c]pyridin-5-yl]-2H-indazol-2-yl}cyclohexyl]methyl}-2,3,5-trifluoro-4-hydroxybenzamide, formate salt] | 77%
2 | 6.5 | Cn1c(=O)n(C2CCC(=O)NC2=O)c2ccc(CC(C)(C)CN3CCN(c4nccc(-c5nc([C@]67CC[C@](CNC(=O)c8cc(F)c(O)c(F)c8F)(CC6)CC7)no5)n4)CC3)cc21 (mixture of isomers) [Example 134, N-{[4-(5-{2-[4-(3-{1-[(3RS)-2,6-dioxopiperidin-3-yl]-3-methyl-2-oxo-2,3-dihydro-1H-benzimidazol-5-yl}-2,2-dimethylpropyl)piperazin-1-yl]pyrimidin-4-yl}-1,2,4-oxadiazol-3-yl)bicyclo[2.2.2]octan-1-yl]methyl}-2,3,5-trifluoro-4-hydroxybenzamide, trifluoroacetate salt] | 85%
3 | 1.7 | O=C1CCN(c2cnn3cc(CCCN4CCO[C@]5(CCN(c6ccc7cn([C@H]8CC[C@H](CNC(=O)c9cc(F)c(O)c(F)c9F)CC8)nc7c6)C5)C4)ccc23)C(=O)N1 (single isomer, unassigned) [Example 30, trifluoroacetate salt] | 74%
4 | 0.19 | Cl.Cn1c(=O)n(C2CCC(=O)NC2=O)c2ccc(CCCN3CCN(c4nccc(-c5nc(C67CCC(CNC(=O)c8cc(F)c(O)c(F)c8F)(CC6)CC7)no5)n4)CC3)cc21 (racemic) [Example 3, N-{[4-(5-{2-[4-(3-{1-[(3RS)-2,6-Dioxopiperidin-3-yl]-3-methyl-2-oxo-2,3-dihydro-1H-benzimidazol-5-yl}propyl)piperazin-1-yl]pyrimidin-4-yl}-1,2,4-oxadiazol-3-yl)bicyclo[2.2.2]octan-1-yl]methyl}-2,3,5-trifluoro-4-hydroxybenzamide, hydrochloride salt] | 84* %
5 | 0.22 | Cn1c(=O)n(C2CCC(=O)NC2=O)c2ccc(CCN3Cc4ccc(-c5ccc6cn([C@H]7CC[C@H](CNC(=O)c8cc(F)c(O)c(F)c8F)CC7)nc6c5)cc4C3)cc21 (mixture of isomers) [Example 106, N-{[(1r,4r)-4-{6-[2-(2-{1-[(3RS)-2,6-dioxopiperidin-3-yl]-3-methyl-2-oxo-2,3-dihydro-1H-benzimidazol-5-yl}ethyl)-2,3-dihydro-1H-isoindol-5-yl]-2H-indazol-2-yl}cyclohexyl]methyl}-2,3,5-trifluoro-4-hydroxybenzamide, trifluoroacetate salt] | 80%
6 | 0.59 | O=C1CCN(c2cnn3cc(CCCN4CCOC5(CCN(c6ccc7cn([C@H]8CC[C@H](CNC(=O)c9cc(F)c(O)c(F)c9F)CC8)nc7c6)CC5)C4)ccc23)C(=O)N1 [Example 28, N-({(1r,4r)-4-[6-(4-{3-[3-(2,4-dioxo-1,3-diazinan-1-yl)pyrazolo[1,5-a]pyridin-6-yl]propyl}-1-oxa-4,9-diazaspiro[5.5]undecan-9-yl)-2H-indazol-2-yl]cyclohexyl}methyl)-2,3,5-trifluoro-4-hydroxybenzamide] | 90%
7 | 0.18 | Cn1c(=O)n(C2CCC(=O)NC2=O)c2ccc(CCCN3CCN(c4ncc(-c5nc([C@]67CC[C@](CNC(=O)c8cc(F)c(O)c(F)c8F)(CC6)CC7)no5)cn4)CC3)cc21 (mixture of isomers) [Example 67, N-{[4-(5-{2-[4-(3-{1-[(3RS)-2,6-dioxopiperidin-3-yl]-3-methyl-2-oxo-2,3-dihydro-1H-benzimidazol-5-yl}propyl)piperazin-1-yl]pyrimidin-5-yl}-1,2,4-oxadiazol-3-yl)bicyclo[2.2.2]octan-1-yl]methyl}-2,3,5-trifluoro-4-hydroxybenzamide, trifluoroacetate salt] | 89%
8 | 2.4 | Cc1ccc(C(=O)N2CCC(CCCn3cc(-c4ccc5cn([C@H]6CC[C@H](CNC(=O)c7cc(F)c(O)c(F)c7)CC6)nc5c4)cn3)CC2)cc1N1CCC(=O)NC1=O [Example 23, N-{[(1r,4r)-4-{6-[1-(3-{1-[3-(2,4-dioxo-1,3-diazinan-1-yl)-4-methylbenzoyl]piperidin-4-yl}propyl)-1H-pyrazol-4-yl]-2H-indazol-2-yl}cyclohexyl]methyl}-3,5-difluoro-4-hydroxybenzamide] | 75%
9 | 1.6 | Cc1ccc(C(=O)N2CCC3(CC2)CC(N2CCN(c4cnc(-c5ccc6cn([C@H]7CC[C@H](CNC(=O)c8cc(F)c(O)c(F)c8F)CC7)nc6c5)cn4)CC2)C3)cc1N1CCC(=O)NC1=O [Example 72, N-{[(1r,4r)-4-{6-[5-(4-{7-[3-(2,4-dioxo-1,3-diazinan-1-yl)-4-methylbenzoyl]-7-azaspiro[3.5]nonan-2-yl}piperazin-1-yl)pyrazin-2-yl]-2H-indazol-2-yl}cyclohexyl]methyl}-2,3,5-trifluoro-4-hydroxybenzamide, trifluoroacetate salt] | 78%
10 | 4.3 | O=C1CCN(c2cnc3cc(CCCN4CCN(c5ccc6cn([C@H]7CC[C@H](CNC(=O)c8cc(F)c(O)c(F)c8F)CC7)nc6c5)CC4)ccn23)C(=O)N1 [Example 47, N-({(1r,4r)-4-[6-(4-{3-[3-(2,4-dioxo-1,3-diazinan-1-yl)imidazo[1,2-a]pyridin-7-yl]propyl}piperazin-1-yl)-2H-indazol-2-yl]cyclohexyl}methyl)-2,3,5-trifluoro-4-hydroxybenzamide, trifluoroacetate salt] | 78%
11 | 2.3 | Cc1ccc(C(=O)N2CCC(CCCCN3CCN(c4ccc5cn(C6CCC(CNC(=O)c7cc(F)c(O)c(F)c7F)CC6)nc5c4)CC3)CC2)cc1N1CCC(=O)NC1=O (stereo not drawn) [Example 20, N-{[(1r,4r)-4-{6-[4-(4-{1-[3-(2,4-Dioxo-1,3-diazinan-1-yl)-4-methylbenzoyl]piperidin-4-yl}butyl)piperazin-1-yl]-2H-indazol-2-yl}cyclohexyl]methyl}-2,3,5-trifluoro-4-hydroxybenzamide] | 78%
12 | 3.3 | Cc1ccc(C(=O)N2CCN(CC3CCN(c4ncc(-c5ccc6cn([C@H]7CC[C@H](CNC(=O)c8cc(F)c(O)c(F)c8F)CC7)nc6c5)cn4)CC3)CC2)cc1N1CCC(=O)NC1=O [Example 42, N-{[(1r,4r)-4-(6-{2-[4-({4-[3-(2,4-dioxo-1,3-diazinan-1-yl)-4-methylbenzoyl]piperazin-1-yl}methyl)piperidin-1-yl]pyrimidin-5-yl}-2H-indazol-2-yl)cyclohexyl]methyl}-2,3,5-trifluoro-4-hydroxybenzamide, trifluoroacetate salt] | 83%
